Experimental findings from article PMC6273487, “Characterisation of the Broadly-Specific O-Methyl-transferase JerF from the Late Stages of Jerangolid Biosynthesis” (Molecules, 2016) are described below.

Structures are written as SMILES.

This assay concerns the target T1, JerF (Sorangium cellulosum, UniProt A1YBT9).
T1 construct: codon-optimised full-length gene in pCOLD-I, N-terminal His6 tag, expressed in E. coli BL21 (DE3), cell-free extract (not purified)
As to the kind of experiment: HPLC-MS of O-methylated product after bioconversion with cell-free extract. The class given is biochemical. The following applies: 5 mM MgCl2, 0.25 mM substrate.

T1 sequence (A1YBT9 entry or part of it): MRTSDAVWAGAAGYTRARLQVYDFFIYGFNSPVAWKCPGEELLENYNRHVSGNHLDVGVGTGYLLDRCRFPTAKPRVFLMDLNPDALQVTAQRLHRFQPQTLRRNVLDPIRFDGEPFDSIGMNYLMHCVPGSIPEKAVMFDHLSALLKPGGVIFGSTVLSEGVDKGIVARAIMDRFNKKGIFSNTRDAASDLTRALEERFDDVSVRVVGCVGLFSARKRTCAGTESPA

In the case of `CC(C)/C=C/C1CC(=O)C(C)C(=O)O1` (racemic) [rac-14e, (E)-3-Methyl-6-(3-methylbut-1-en-1-yl)dihydro-2H-pyran-2,4(3H)-dione], for the setting “SAM tosylate 4.18 mM, 25 mM HEPES, pH 7.5, 28 °C, 20 h”, the “HPLC-MS of O-methylated product after bioconversion with cell-free extract” value was “Full conversion was reproducibly obtained for compounds rac-14b, rac-14c, rac-14e and rac-14f”.

As to `C/C=C/C1CC(=O)C(C)C(=O)O1` (racemic) [rac-14d, (E)-3-Methyl-6-(prop-1-en-1-yl)dihydro-2H-pyran-2,4(3H)-dione], the “HPLC-MS of O-methylated product after bioconversion with cell-free extract” value (SAM tosylate 0.97 mM, 40 mM Tris HCl, pH 8.8, 28 °C, 16 h, empty-vector and heat-denatured lysate controls run) is “rac-14d was almost completely converted into the respective O-methylated product mixture rac-15d”.
